Test results as given in ChEMBL document CHEMBL1201862, “PubChem BioAssay data set” (2004).
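96-well plates; 48 h exposure; 5 concentrations. Endpoints by linear interpolation between flanking doses. Not reached: highest tested concentration assigned. At the GI50, growth is halved.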 The source made the active and inactive calls. No stated cut-off is given here; in the data, active = GI50 up to about 1.1 µM and inactive = higher.

Legend:
Experiment in all cases: DTP human tumour cell line panel, 48 h
IGROV-1 = system: IGROV-1
LOX IMVI = system: LOX IMVI
UACC-257 = system: UACC-257
A498 = system: A498
PC-3 = system: PC-3
NCI/ADR-RES = system: NCI/ADR-RES
SF-268 = system: SF-268
CCRF-CEM = system: CCRF-CEM
SW-620 = system: SW-620
M14 = system: M14
HCT-15 = system: HCT-15
EKVX = system: EKVX
OVCAR-4 = system: OVCAR-4
NCI-H226 = system: NCI-H226
MDA-MB-435 = system: MDA-MB-435
786-0 = system: 786-0
SF-539 = system: SF-539
HL-60 = system: HL-60
SK-MEL-2 = system: SK-MEL-2
RPMI-8226 = system: RPMI-8226

CC(N)(CC(O)(C(F)(F)Cl)C(F)(F)Cl)C(=O)O (stereo not given)
GI50 (IGROV-1): > 10 µM (inactive) | GI50 (LOX IMVI): > 10 µM (inactive) | GI50 (UACC-257): > 10 µM (inactive) | GI50 (A498): > 10 µM (inactive) | GI50 (PC-3): > 10 µM (inactive) | GI50 (NCI/ADR-RES): > 10 µM (inactive) | GI50 (SF-268): > 10 µM (inactive) | GI50 (CCRF-CEM): > 10 µM (inactive) | GI50 (SW-620): > 10 µM (inactive) | GI50 (M14): > 10 µM (inactive) | GI50 (HCT-15): > 10 µM | GI50 (EKVX): > 10 µM (inactive) | GI50 (OVCAR-4): > 10 µM (inactive) | GI50 (NCI-H226): > 10 µM (inactive) | GI50 (MDA-MB-435): > 10 µM (inactive) | GI50 (786-0): > 10 µM (inactive) | GI50 (SF-539): > 10 µM (inactive)

O=C(c1cc(Cl)cc(Cl)c1)N(C(=O)N1CCN(c2ccccc2)CC1)c1ccccc1
GI50 (LOX IMVI): 36.5 µM (inactive) | GI50 (HL-60): 17.2 µM (inactive) | GI50 (UACC-257): 28.9 µM (inactive) | GI50 (A498): 21.2 µM (inactive) | GI50 (PC-3): 25.1 µM (inactive) | GI50 (NCI/ADR-RES): 25.6 µM (inactive) | GI50 (SF-268): 43.1 µM (inactive) | GI50 (CCRF-CEM): 22.5 µM (inactive) | GI50 (SW-620): 30.3 µM (inactive) | GI50 (M14): 27.6 µM (inactive) | GI50 (HCT-15): 17 µM | GI50 (SK-MEL-2): 24.8 µM (inactive) | GI50 (EKVX): 20.7 µM (inactive) | GI50 (OVCAR-4): 23 µM (inactive) | GI50 (NCI-H226): 22.8 µM (inactive) | GI50 (MDA-MB-435): 11.1 µM (inactive) | GI50 (786-0): 43.1 µM (inactive) | GI50 (SF-539): 41 µM (inactive)

Nc1ccc2c(c1)C(=O)N1CCC[C@H]1C(=O)N2
GI50 (RPMI-8226): > 100 µM (inactive) | GI50 (IGROV-1): > 100 µM (inactive) | GI50 (LOX IMVI): > 100 µM (inactive) | GI50 (UACC-257): > 100 µM (inactive) | GI50 (A498): > 100 µM (inactive) | GI50 (PC-3): > 100 µM (inactive) | GI50 (NCI/ADR-RES): > 100 µM (inactive) | GI50 (SF-268): > 100 µM (inactive) | GI50 (CCRF-CEM): 1.38 µM (inactive) | GI50 (SW-620): > 100 µM (inactive) | GI50 (M14): > 100 µM (inactive) | GI50 (HCT-15): > 100 µM | GI50 (SK-MEL-2): > 100 µM (inactive) | GI50 (EKVX): > 100 µM (inactive) | GI50 (OVCAR-4): > 100 µM (inactive) | GI50 (NCI-H226): > 100 µM (inactive) | GI50 (MDA-MB-435): > 100 µM (inactive) | GI50 (786-0): > 100 µM (inactive) | GI50 (SF-539): > 100 µM (inactive)

Oc1ccc([C@H]2c3c(O)cc(O)cc3C3c4c(cc(O)cc4[C@@H]2[C@H]2c4cc(O)cc5c4C(c4cc(O)cc(O)c4[C@@H]2c2ccc(O)cc2)[C@@H](c2ccc(O)cc2)O5)O[C@@H]3c2ccc(O)cc2)cc1 (stereo not given in full)
GI50 (RPMI-8226): 41.4 µM (inactive) | GI50 (IGROV-1): 6.73 µM (inactive) | GI50 (LOX IMVI): 2.41 µM (inactive) | GI50 (HL-60): 2.48 µM (inactive) | GI50 (UACC-257): 0.356 µM (active) | GI50 (PC-3): 0.391 µM (active) | GI50 (NCI/ADR-RES): > 100 µM (inactive) | GI50 (SF-268): 1.61 µM (inactive) | GI50 (CCRF-CEM): 1.53 µM (inactive) | GI50 (M14): 6.25 µM (inactive) | GI50 (HCT-15): > 100 µM | GI50 (SK-MEL-2): 1.58 µM (inactive) | GI50 (EKVX): 0.29 µM (active) | GI50 (OVCAR-4): 0.83 µM (active) | GI50 (NCI-H226): > 100 µM (inactive) | GI50 (MDA-MB-435): 2.59 µM (inactive) | GI50 (786-0): 4.94 µM (inactive) | GI50 (SF-539): 0.564 µM (active)

O=C(Nc1nn(C(=O)c2cccnc2)c(=O)s1)c1ccc(Cl)cc1
GI50 (LOX IMVI): > 100 µM (inactive) | GI50 (HL-60): 60.3 µM (inactive) | GI50 (UACC-257): > 100 µM (inactive) | GI50 (A498): > 100 µM (inactive) | GI50 (PC-3): 61.1 µM (inactive) | GI50 (NCI/ADR-RES): > 100 µM (inactive) | GI50 (SF-268): 20.7 µM (inactive) | GI50 (CCRF-CEM): 34 µM (inactive) | GI50 (SW-620): > 100 µM (inactive) | GI50 (M14): > 100 µM (inactive) | GI50 (HCT-15): 80.4 µM | GI50 (SK-MEL-2): > 100 µM (inactive) | GI50 (EKVX): 50.6 µM (inactive) | GI50 (OVCAR-4): 84.7 µM (inactive) | GI50 (NCI-H226): 22.5 µM (inactive) | GI50 (MDA-MB-435): > 100 µM (inactive) | GI50 (786-0): > 100 µM (inactive) | GI50 (SF-539): 29.4 µM (inactive)

CC1(c2nc3ccccc3[nH]2)CCC(C(=O)O)C(C)(C)O1 (stereo not given)
GI50 (RPMI-8226): > 100 µM (inactive) | GI50 (IGROV-1): > 100 µM (inactive) | GI50 (LOX IMVI): > 100 µM (inactive) | GI50 (HL-60): > 100 µM (inactive) | GI50 (UACC-257): > 100 µM (inactive) | GI50 (PC-3): > 100 µM (inactive) | GI50 (NCI/ADR-RES): > 100 µM (inactive) | GI50 (SF-268): > 100 µM (inactive) | GI50 (CCRF-CEM): > 100 µM (inactive) | GI50 (SW-620): > 100 µM (inactive) | GI50 (M14): > 100 µM (inactive) | GI50 (HCT-15): > 100 µM | GI50 (SK-MEL-2): > 100 µM (inactive) | GI50 (EKVX): > 100 µM (inactive) | GI50 (OVCAR-4): > 100 µM (inactive) | GI50 (NCI-H226): > 100 µM (inactive) | GI50 (MDA-MB-435): > 100 µM (inactive) | GI50 (786-0): > 100 µM (inactive) | GI50 (SF-539): > 100 µM (inactive)

Cc1cn2c(/C=C3/C(=O)Nc4cccc(Cl)c43)c(Cl)nc2s1
GI50 (RPMI-8226): > 100 µM (inactive) | GI50 (IGROV-1): > 100 µM (inactive) | GI50 (LOX IMVI): > 100 µM (inactive) | GI50 (HL-60): 53.7 µM (inactive) | GI50 (UACC-257): > 100 µM (inactive) | GI50 (A498): 63.2 µM (inactive) | GI50 (PC-3): > 100 µM (inactive) | GI50 (NCI/ADR-RES): > 100 µM (inactive) | GI50 (SF-268): 11.3 µM (inactive) | GI50 (CCRF-CEM): 13.5 µM (inactive) | GI50 (SW-620): 3.18 µM (inactive) | GI50 (M14): 34.7 µM (inactive) | GI50 (HCT-15): > 100 µM | GI50 (EKVX): 55.8 µM (inactive) | GI50 (OVCAR-4): > 100 µM (inactive) | GI50 (MDA-MB-435): > 100 µM (inactive) | GI50 (786-0): 18.5 µM (inactive)

O=C(C(=O)n1ccc2ccccc21)c1c[nH]c2ccccc12
GI50 (RPMI-8226): > 10 µM (inactive) | GI50 (IGROV-1): > 10 µM (inactive) | GI50 (LOX IMVI): > 10 µM (inactive) | GI50 (HL-60): > 10 µM (inactive) | GI50 (UACC-257): > 10 µM (inactive) | GI50 (PC-3): > 10 µM (inactive) | GI50 (NCI/ADR-RES): > 10 µM (inactive) | GI50 (SF-268): > 10 µM (inactive) | GI50 (CCRF-CEM): > 10 µM (inactive) | GI50 (SW-620): > 10 µM (inactive) | GI50 (M14): > 10 µM (inactive) | GI50 (HCT-15): > 10 µM | GI50 (SK-MEL-2): > 10 µM (inactive) | GI50 (EKVX): > 10 µM (inactive) | GI50 (OVCAR-4): > 10 µM (inactive) | GI50 (NCI-H226): > 10 µM (inactive) | GI50 (MDA-MB-435): > 10 µM (inactive) | GI50 (786-0): > 10 µM (inactive) | GI50 (SF-539): > 10 µM (inactive)
